Patent US20250368639A1, “SOLID FORMS OF A COMPOUND FOR TREATING OR PREVENTING HYPERURICEMIA OR GOUT” (ATOM THERAPEUTICS CO., LTD, priority 2022, published 2025)
≈ marks a conversion by molar mass, not a printed value.

Tests used:
Type in all cases: physicochemical
[1] = Dynamic vapor sorption/desorption (DVS); conditions: 25° C., 85% RH
Protocol: Moisture sorption/desorption data were collected on a SMS DVS intrinsic Vapor Sorption Analyzer under a nitrogen purge. The DVS experiment generally includes a moisture sorption step and a moisture desorption step. […] In other words, the sample is considered to have reached an equilibrium between moisture sorption and desorption under the relative humidity when dm/dt≤0.01%. The sample was maintained at the temperature of 25° C. with relative humidity varied from 0% to 95%, and back to 0% at an increment of 5% RH each step.

[2] = Slurry stability in purified water (XRPD); conditions: stirred overnight at room temperature
Protocol: About 30 mg of Form land Form 5D, Form 6, and Form 8 were mixed with about 2.5 ml of purified water, and the mixtures were stirred for overnight at room temperature. The wet solids were isolated by centrifugation, and further dried in vacuum for 2.5 hours before being analyzed with XRPD.

[3] = Solid state stability under stress conditions (XRPD, HPLC); conditions: closed vial about 60° C.; closed vial about 40° C./75% RH; 1 week and 2 weeks
Protocol: Form 1. Form 2, Form 6, Form 8, and Form 11 were each placed under following stress conditions: (1) in a closed vial at a temperature of about 60° C., and (2) in a closed vial at a temperature of about 40′° C. and a humidity of about 75% RH. The solids were analyzed with XRPD at 1 week and 2 weeks intervals.
Additionally, all forms were analyzed with HPLC for impurity at the 1 week and 2 weeks intervals. In a typical analysis, about 5 mg of forms were each dissolved in 10 ml of diluents with the aid of sonication for 2 minutes. THF was used as the diluent for Form 1, and methanol was used as the diluent for Form 6, Form 8, and Form 11. The HPLC analysis utilized Agilent Eclipse XDB-C18 4.6*150 mm. 3.5 μm at 30° C., a mobile phase of a gradient between 0.1% H3PO4 and acetonitrile (9:1 to 2:8 to 9:1), an injection volume of 10 μl, a flow rate of 1.0 ml/min, and a detection wavelength of 214 nm.
Form 2 was further subject to the stability test in an open vial at 40° C. and a relative humidity of 75% RH.

[4] = Solubility in water, buffers and bio-relevant media (37° C., 24 h shaking, HPLC); conditions: for Solubility: 37° C., 24 h; for Appearance / solubility in water: shaken about 24 hours, compared with Form 1
Protocol: The solubility of Form 1, Form 2, Form 5D, Form 6, Form 8, and Form 11 was analyzed in water, 0.1NaqueousHCl, pH4.5 acetate buffer solution, pH6.8 phosphate buffer solution, simulated gastric fluid (SGF), Fasted State Simulated Intestinal Fluid (FaSSIF), and Fed State Simulated Intestinal Fluid (FeSSIF).
About 5 mg or 10 mg of sample was weighed out into each vial and mixed with about 5 ml of medium to form a solution. The target concentration for the potassium salt in water was 2 mg/ml; and the target concentration for all other forms were 1 mg/mL. All samples were kept shaking at 200 rounds per minute (rpm) under 37° C. for 24 hours. The pH value of these samples were determined after shaking for 24 hours. Subsequently, they were centrifuged at the speed of 12000 rpm for 2 mins. The supernatant was diluted with methanol as necessary, and the concentrations were determined by HPLC. When the solubility of potassium salt was tested in water, the supernatant was diluted 100 times, while no other samples were diluted. The HPLC analysis utilizes Agilent Eclipse XDB-C8 4.6*150 mm, 5 μm column at 40° C., a mobile phase of 0.1% TFA: ACN=70:30, an injection volume of 10 μl, a flow rate of 1.0 ml/min, a diluent of methanol, and a detection wavelength of 234 nm.

SMILES | DVS (85% RH) [1] | Crystal form after slurry in purified water (XRPD) [2] | XRPD pattern after stress storage [3] | Solubility ([4]; 0.1N HCl) | Solubility ([4]; FaSSIF) | Solubility ([4]; FeSSIF) | Solubility ([4]; SGF) | Solubility ([4]; Water) | Solubility ([4]; pH 4.5 acetate buffer) | Solubility ([4]; pH 6.8 phosphate buffer) | Appearance / solubility in water [4]
CCc1nc2ccccn2c1C(=O)c1cc(Br)c(O)c(C#N)c1 [Form 7, 3-bromo-5-[(2-ethylimidazo[1,2-a]pyridin-3-yl)carbonyl]-2-hydroxybenzonitrile] | 1.93% |  |  |  |  |  |  |  |  |  | 
CCc1nc2ccccn2c1C(=O)c1cc(Br)c(O)c(C#N)c1 [Form 6, 3-bromo-5-[(2-ethylimidazo[1,2-a]pyridin-3-yl)carbonyl]-2-hydroxybenzonitrile] | 0.35% | transformed into Form 1 | substantially similar to those received at the initial time | 4.6 µg/mL (≈ 12.4 µM) | 45.8 µg/mL (≈ 124 µM) | 4.4 µg/mL (≈ 11.9 µM) | 3.3 µg/mL (≈ 8.91 µM) | 0.4 µg/mL (≈ 1.08 µM) | 0.5 µg/mL (≈ 1.35 µM) | 25.7 µg/mL (≈ 69.4 µM) | reduced solubility in water
CCc1nc2ccccn2c1C(=O)c1cc(Br)c(O)c(C#N)c1 [Form 10, 3-bromo-5-[(2-ethylimidazo[1,2-a]pyridin-3-yl)carbonyl]-2-hydroxybenzonitrile] | 2.37% |  |  |  |  |  |  |  |  |  | 
CCc1nc2ccccn2c1C(=O)c1cc(Br)c(O)c(C#N)c1 [Form 8, 3-bromo-5-[(2-ethylimidazo[1,2-a]pyridin-3-yl)carbonyl]-2-hydroxybenzonitrile] | 4.66% | transformed into Form 1 | substantially similar to those received at the initial time | 5.3 µg/mL (≈ 14.3 µM) | 14.5 µg/mL (≈ 39.2 µM) | 8.6 µg/mL (≈ 23.2 µM) | 3.5 µg/mL (≈ 9.45 µM) | 0.5 µg/mL (≈ 1.35 µM) | 0.6 µg/mL (≈ 1.62 µM) | 17.9 µg/mL (≈ 48.4 µM) | reduced solubility in water
CCc1nc2ccccn2c1C(=O)c1cc(Br)c(O)c(C#N)c1 [Form 9, 3-bromo-5-[(2-ethylimidazo[1,2-a]pyridin-3-yl)carbonyl]-2-hydroxybenzonitrile] | 0.29% |  |  |  |  |  |  |  |  |  | 
CCc1nc2ccccn2c1C(=O)c1cc(Br)c(O)c(C#N)c1 [Form 11, 3-bromo-5-[(2-ethylimidazo[1,2-a]pyridin-3-yl)carbonyl]-2-hydroxybenzonitrile] | 6.18% |  | substantially similar to those received at the initial time | 6.8 µg/mL (≈ 18.4 µM) | 28.4 µg/mL (≈ 76.7 µM) | 3.4 µg/mL (≈ 9.18 µM) | 5.8 µg/mL (≈ 15.7 µM) | 1914.5 µg/mL (≈ 5170 µM) | 1.7 µg/mL (≈ 4.59 µM) | 31.0 µg/mL (≈ 83.7 µM) | nearly clear solution in water
CCc1nc2ccccn2c1C(=O)c1cc(Br)c(O)c(C#N)c1 [Form 12, 3-bromo-5-[(2-ethylimidazo[1,2-a]pyridin-3-yl)carbonyl]-2-hydroxybenzonitrile] | 8.07% |  |  |  |  |  |  |  |  |  | 
